Assay results: patent US5169855A, “Piperidine ether derivatives as psychotropic drugs or plant fungicides” (priority 1990, dated 1992)

Assays:
[1] = test system: Erysiphe graminis f. sp. tritici; experiment: Test A: wheat powdery mildew disease control (wheat seedlings); type: in vivo; conditions: sprayed at 1000 to 2 ppm (rate not given per compound)
Method: The test compounds were dissolved in acetone in an amount equal to 6% of the final volume and then suspended at a concentration of from 1000 to 2 ppm in purified water containing 250 ppm of the surfactant TREM 014 (polyhydric alcohol esters). This suspension was sprayed to the point of run-off on wheat seedlings. The following day plants were inoculated with a spore dust of Erysiphe graminis f. sp. tritici, the causal agent of wheat powdery mildew, and incubated in a growth chamber at 20° C. for 7 days, when disease ratings were made.

Puccinia recondita = experiment: Test B: wheat leaf rust disease control (wheat seedlings); type: in vivo; conditions: sprayed at 1000 to 2 ppm (rate not given per compound)
Method: The test compounds were dissolved in acetone in an amount equal to 6% of the final volume and then suspended at a concentration of from 1000 to 2 ppm in purified water containing 250 ppm of the surfactant TREM 014 (polyhydric alcohol esters). This suspension was sprayed to the point of run-off on wheat seedlings.

Venturia inaequalis = experiment: Test C: apple scab disease control (apple seedlings); type: in vivo; conditions: sprayed at 1000 to 2 ppm (rate not given per compound)
Method: (§1) The test compounds were dissolved in acetone in an amount equal to 6% of the final volume and then suspended at a concentration of from 1000 to 2 ppm in purified water containing 250 ppm of the surfactant TREM 014 (polyhydric alcohol esters). This suspension was sprayed to the point of run-off on apple seedlings. The following day plants were inoculated with a spore suspension of Venturia inaequalis, the causal agent of apple scab, and incubated in a saturated humidity chamber at 20° C. for 24 hours and then in a growth chamber at 22° C. for 11 days, when disease ratings were made.

Cercosporidum personatum = experiment: Test D: peanut late leaf spot disease control (peanut seedlings); type: in vivo; conditions: sprayed at 1000 to 2 ppm (rate not given per compound)
Method: The test compounds were dissolved in acetone in an amount equal to 6% of the final volume and then suspended at a concentration of from 1000 to 2 ppm in purified water containing 250 ppm of the surfactant TREM 014 (polyhydric alcohol esters). This suspension was sprayed to the point of run-off on peanut seedlings. The following day plants were inoculated with a spore suspension of Cercosporidum personatum, the causal agent of peanut late leaf spot, and incubated in a saturated humidity chamber at 22° C. for 24 hours and then in a high humidity chamber at 27° C. for 7 days, and then in a growth chamber at 29° C. for 7 days, when disease ratings were made.

Botrytis cinerea = experiment: Test E: cucumber grey mold disease control (cucumber seedlings); type: in vivo; conditions: sprayed at 1000 to 2 ppm (rate not given per compound)
Method: as §1, with “cucumber” for “apple”, “Botrytis cinerea,” for “Venturia inaequalis,”, “cucumber grey mold,” for “apple scab,”, “48” for “24”, “greenhouse” for “growth chamber at 22° C.”, “5” for “11”

Phytophthora infestans = type: in vivo; conditions: tomato late blight; sprayed at 1000 to 2 ppm (rate not given per compound)
Pyricularia oryzae = type: in vivo; conditions: rice blast; sprayed at 1000 to 2 ppm (rate not given per compound)
Rhizoctonia solani = experiment: Test I: rice sheath blight disease control (rice seedlings); type: in vivo; conditions: sprayed at 1000 to 2 ppm (rate not given per compound)
Method: The test compounds were dissolved in acetone in an amount equal to 6% of the final volume and then suspended at a concentration of from 1000 to 2 ppm in purified water containing 250 ppm of the surfactant TREM 014 (polyhydric alcohol esters). This suspension was sprayed to the point of run-off on rice seedlings. The following day plants were inoculated with a mycelial suspension of Rhizoctonia solani, the causal agent of rice sheath blight, and incubated in a saturated humidity chamber at 27° C. for 48 hours and then in a growth chamber at 29° C. for 4 days, when disease ratings were made.

[2] = test system: isolation-induced aggressive behavior; experiment: Isolation-Induced Aggression in Mice; type: in vivo, mouse (male Balb/c); conditions: po
Method: Male Balb/c mice (Charles River) were used. […] Isolated mice failing to consistently attack an intruder were eliminated from the colony.
Drug testing was carried out by treating the isolated mice with test drugs or standards. Fifteen min after dosing with drugs by the oral route (po), one isolated mouse was removed from its home cage and placed in the home cage of another isolate. Scoring was a yes or no response for each pair. A maximum of 3 min was allowed for an attack and the pair was separated immediately upon an attack. Selection of home cage and intruder mice was randomized for each test. Mice were treated and tested twice a week with at least a 2 day washout period between treatments.

Plasmopara viticola = experiment: Test G: grape downy mildew disease control (grape seedlings); type: in vivo; conditions: sprayed at 1000 to 2 ppm (rate not given per compound)
Method: The test compounds were dissolved in acetone in an amount equal to 6% of the final volume and then suspended at a concentration of from 1000 to 2 ppm in purified water containing 250 ppm of the surfactant TREM 014 (polyhydric alcohol esters). This suspension was sprayed to the point of run-off on grape seedlings. The following day plants were inoculated with a spore suspension of Plasmopara viticola, the causal agent of grape downy mildew, and incubated in a dew chamber at 20° C. for 24 hours and then in a growth chamber a 20° C. for 7 days, when disease ratings were made.

[3] = test system: (+)-N-allylnormetazocine-induced turning; experiment: (+)-N-Allylnormetazocine-Induced Turning Behavior in Rats; type: in vivo, rat (male Sprague-Dawley); conditions: p.o.
sigma receptor = conditions: Tam, Eur. Pharmacol. 109: 33-41 (1985); cited from earlier work

Compound	disease control rating, Test A [1] [%]	disease control rating, Test B (Puccinia recondita) [%]	disease control rating, Test C (Venturia inaequalis) [%]	disease control rating, Test D (Cercosporidum personatum) [%]	disease control rating, Test E (Botrytis cinerea) [%]	disease control rating, Test F (Phytophthora infestans) [%]	disease control rating, Test H (Pyricularia oryzae) [%]	disease control rating, Test I (Rhizoctonia solani) [%]	inhibiting the isolation-induced aggressive behavior (in words) [2]	disease control rating, Test G (Plasmopara viticola) [%]	antagonism of N-allylnormetazocine-induced rotation (in words) [3]	affinity for the sigma receptor (in words) (sigma receptor)
Fc1ccc(COCC2CCN(CCCc3ccccc3)CC2)cc1 [Example 313]	97	29	40	91	0	0	0	0				
COC(=O)c1ccc(CN2CCC(COCc3ccc(F)cc3)CC2)cc1 [Example 187]	98	96	51	0	0	0	0	0				
CCCCCCN1CCC(COCc2ccc(F)cc2)CC1 [Example 312]	97	27	16	51	0	0	0	0				
O=[N+]([O-])c1ccc(OCC2CCN(Cc3ccccc3)CC2)cc1 [Example 135]									potent activities			
Clc1ccc(OCC2CCN(Cc3ccccc3)CC2)cc1 [Example 134]									potent activities			
c1ccc(COCC2CCN(Cc3ccccc3)CC2)cc1 [Example 185]	29	0	28	26	0	0	0	0				
Fc1ccc(COCC2CCN(Cc3cccc4ccccc34)CC2)cc1 [Example 196]	0		90	0	0	26	0	0		40		
Fc1ccc(OCC2CCN(Cc3ccccc3)CC2)cc1 [Example 68, 1-Benzyl-4-(4'-Fluorophenoxymethyl)piperidine]									potent activities		potently antagonized	
Fc1ccc(COCC2CCN(Cc3ccc4ccccc4c3)CC2)cc1 [Example 195]	99	73	68	46	0	0	0	0				
CC(C)=CCN1CCC(COCc2ccc(F)cc2)CC1 [Example 314]	91		46	75	8	0	0	39				
O=C(CCCN1CCC(O)(c2ccc(Cl)cc2)CC1)c1ccc(F)cc1 [Haloperidol, reference compound]									potent activities		potently antagonized	
COc1ccc(COCC2CCN(Cc3ccccc3)CC2)cc1 [Example 182]	63	27	0	0		0	0	0				
Oc1ccc(CN2CCC(COCc3ccc(F)cc3)CC2)cc1 [Example 189]	99	26	86	75	0	0	0	0				
FC(F)(F)c1ccc(OCC2CCN(Cc3ccccc3)CC2)cc1 [Example 136]									potent activities			
Fc1ccc(COCC2CCN(Cc3ccccc3)CC2)cc1 [Example 205]	94	35	66	30	33	0	0	0				
Fc1ccc(COC2CCN(Cc3ccccc3)CC2)cc1 [Example 315]	99	52	90	46	0	0	0	19				
Fc1ccc(COCC2CCN(Cc3ccccc3)CC2)cc1 [Example 181]	87	37	55	82		0	0	0	potent activities			
Fc1ccc(COCC2CCN(Cc3ccc(Cl)cc3)CC2)cc1 [Example 188]	100	72	93	82	18	8	0	0		89		
COC(=O)c1ccc(COCC2CCN(Cc3ccccc3)CC2)cc1 [Example 186]	0		81	0	0	0	0	0				
Fc1ccc(OCC2CCN(Cc3ccc(Cl)cc3)CC2)cc1 [Example 138]									potent activities			
Fc1ccc(COCC2CCN(Cc3ccc4ccccc4c3)CC2)cc1 [Example 114]									potent activities			
c1ccc(C2(N3CCCCC3)CCCCC2)cc1 [PCP]												significant affinity
